According to patent publication US20060013858A1, “Fludrocortisone treatment for hearing loss” (priority 2002, published 2006):
Where “and” joins values, the source holds several entries; their conditions need not be identical. Equal values may be shown once. Read-outs that look alike come from different tables or passages of the source.

Key:
[1] = tested on: MRL/MpJ-Fas^lPr autoimmune mice; assay: Spleen weight (splenomegaly); type: in vivo, mouse; settings: at sacrifice; prednisolone 5 mg treatment; aldosterone dose not stated
From the text: (§1) This example describes methods used to measure the severity of systemic autoimmune disease, as described in Trune et al. (Hear. Res. 38:57-66, 1989). Briefly, baseline and posttreatment serum samples are taken for measurement of hematocrit, antinuclear antibodies, and serum immune complexes as indices of systemic autoimmune disease progression. […] For those mice still alive at the time of sacrifice, some spleens were weighed to assess splenomegaly, another index of systemic autoimmune disease progression.
Increased spleen size also is a manifestation of autoimmune disease, increasing with progression of systemic T and B cell proliferation. The spleen is approximately 75-100 mg in normal mice.

[2] = tested on: MRL/MpJ-Fas^lPr autoimmune mice; assay: Anti-nuclear antibody (ANA) levels by immunofluorescence; type: in vivo, mouse; settings: pre- vs posttreatment
From the text: as §1
Antibodies against nuclear material are another manifestation of autoimmune disease. Anti-nuclear antibody (ANA) levels are determined by level of immunofluorescence (1+ to 4+) with normal as 1+as previously described (Trune et al., Hear. Res. 38:57-66, 1989).

[3] = tested on: MRL/MpJ-Fas^lPr autoimmune mice; settings: mouse, in vivo
[4] = tested on: MRL/MpJ-Fas^lPr autoimmune mice; assay: Cochlear histology of the stria vascularis; type: in vivo, mouse; settings: for stria vascularis appearance: after steroid treatment, qualitative
Experimental: Following decalcification in EDTA, the ears were cryostat sectioned for qualitative morphologic evaluations of the stria vascularis. The procedure of Whitlon et al. (Brain Res. Protocols, 6:159-66, 2001) can be used to improve OCT compound infiltration and tissue preservation. The cochleas were cryostat sectioned for immunocytochemical analyses. Quantitative morphology was performed on glycol methacrylate (GMA) embedded tissue as follows. […] Following decalcification in EDTA, the ears were embedded in glycol methacrylate for light microscopic examination. Every fourth section (5 μm thickness) wass serially mounted on glass slides and stained for quantitative and qualitative analyses. Cochleas were scanned for pathological changes and treatment effects. Of particular interest is the stria vascularis, lateral wall, hair cells, spiral ganglion neurons, and all blood vessels in modiolar and sensory regions. The area occupied by stria vascularis, blood vessels, non-blood vessels, and intercellular edema was measured for statistical analysis. Alternatively, the following methods can be used to qualitatively determine stria vascularis and spiral ligament and integrity of endothelial cell tight junctions, intercellular edema. […] Thin sections are observed on a Philips CM100. Qualitative observations are made of the cochlear tissue areas above and any other regions determined in the immunohistochemistry section to be responsive to steroid therapy. Stria vascularis is examined for integrity of endothelial cell tight junctions, and intercellular edema, to determine the treatment effects on known changes that occur in autoimmune disease.

[5] = tested on: MRL/MpJ-Fas^lPr autoimmune mice; assay: Drug combination therapy: survival; type: in vivo, mouse; settings: for % alive: 2 months
[6] = tested on: MRL/MpJ-Fas^lPr autoimmune mice; assay: Blood hematocrit as index of systemic autoimmune disease; type: in vivo, mouse; settings: for change in hematocrit: pre- vs posttreatment, any dose
From the text: as §1
(§2) It may not be possible to perform an extensive statistical analysis on serum measures if there are high mortality rates, if the differential mortality rates between groups lead to large differences in sample sizes, and an inability to get sufficient blood from some mice. In this case, pretreatment-posttreatment statistical comparisons (paired t-tests) are conducted only for those mice that survive the treatment period.

[7] = tested on: MRL/MpJ-Fas^lPr autoimmune mice; assay: Serum immune complexes as index of systemic autoimmune disease; type: in vivo, mouse; settings: for effect on serum immune complexes: pre- vs posttreatment
From the text: as §1, §2

[8] = tested on: MRL/MpJ-Fas^lPr autoimmune mice; settings: Trune et al., Laryngoscope 2000; cited from earlier work
[9] = tested on: MRL/MpJ-Fas^lPr autoimmune mice; assay: Stria blood vessel size (quantitative morphology, plastic embedding); type: in vivo, mouse; settings: Chi-squared of vessels above and below normal median
From the text: To increase histological detail in order to quantitatively measure steroid responsive hearing loss (stria blood vessel sizes), plastic embedding methods were used as described herein. Age-matched BALB/c controls also were processed to provide details of non-autoimmune stria. Camera lucida drawings were made of the stria, its blood vessels, and the edematous spaces. Digitized measurements were made of these various features.

[10] = tested on: MRL/MpJ-Fas^lPr autoimmune mice; assay: Drug combination therapy: ABR ear outcome; type: in vivo, mouse
Experimental: (§3) Animals were anesthetized (kcetamine+xylazine) and the individual ears of each mouse stimulated with a closed-tube sound delivery system sealed into the ear canal. The ABR to tone-burst stimuli at 4, 8, 16, and 32 kHz was recorded and thresholds obtained for each ear. Absolute thresholds and threshold changes over the treatment period for each ear were calculated to determine if treatments impact cochlear function. For each ear, pretreatment and posttreatment thresholds at the four frequencies were compared statistically to establish any change over the treatment period.
(§4) The shifts for each frequency within an ear were added to derive its total change in threshold as described previously (Trune et al., Hear. Res. 137:160-6, 1999; Trune et al., Hear. Res. 137:167-73, 1999). If the ear's combined posttreatment thresholds was lower by 20 dB or more, the ear was considered to be improved (average of 5 dB per frequency). The ear is considered unchanged if the combined thresholds are +/−15 dB and worse if the combined thresholds were higher by 20 dB or more.
Hearing loss was monitored monthly using the method described in Example 2.

[11] = tested on: MRL/MpJ-Fas^lPr autoimmune mice; assay: Auditory brainstem response (ABR) audiometry after oral steroid treatment; type: in vivo, mouse; settings: for % of ears that are same (unchanged) / % of ears that are worse / % of ears that are better: two months following treatment, dose not stated; for % of ears that are same (unchanged): combined ABR thresholds +/-15 dB; for % of ears that are worse: combined ABR thresholds higher by 20 dB or more; for % of ears that are better: combined ABR thresholds lower by 20 dB or more
From the text: The MRL/MpJ-Fas^lPr autoimmune mouse is an established model of autoimmune sensorineural hearing loss (Ruckenstein et al., Acta OtolaryngoL 113:160-5, 1993; Trune et al. Hear. Res. 105:57-64, 1997). These mice carry a Fas gene defect that prevents apoptosis of self-recognizing T lymphocytes, leading to T cell proliferation and polyclonal B cell activation (Watanabe-Fukunaga et al. Nature 356:314-7, 1992). Spontaneous systemic autoimmune disease develops in MRL/MpJ-Fas^lPr autoimmune mice, resulting in increased serum immune complexes, anti-DNA antibodies, lymphadenopathy, elevated auditory thresholds, lowered hematocrits due to anti-erythrocyte autoantibodies, splenomegaly, increased body mass and pathological changes in the stria vascularis (Id. and Ruckenstein et al. Otolaryngol. Head Neck Surg. 121:452-6, 1999; Trune et al. Hear. Res. 155:9-20, 2001).
Mice (Jackson Laboratories, Bar Harbor, Me.) were obtained at two months of age. Onset of systemic autoimmune disease occurs at 3-4 months of age and cochlear thresholds rise shortly thereafter (Trune et al., Otolaryngol. Head Neck Surg. 117:504-8, 1997). Mice were tested with auditory brainstem response (ABR) audiometry (see Example 2) at 2-3 months of age to establish pretreatment baseline auditory thresholds.
as §3, §4

[12] = tested on: MRL/MpJ-Fas^lPr autoimmune mice; assay: Survival and tolerance of steroid drinking water; settings: for tolerance of steroid in the drinking water: dehydration, avoidance of drinking
From the text: Serum samples were collected for baseline levels of hematocrit, serum immune complexes, and antinuclear antibodies, all hallmarks of systemic autoimmune disease. […] At the end of treatments, ABR audiometry and serum collection were repeated at 2, 3, and 4 months of treatment to determine steroid effects on cochlear function and systemic autoimmunity.
Oral delivery in mice provides a constant source of steroid, parallels oral administration in humans, and avoids the trauma of daily injections.
Mice receiving aldosterone were administered a daily oral dose of 3, 5, 15, or 30 μLg/kg/day of d-aldosterone (Sigma, St. Louis Mo.). Aldosterone drinking water was prepared by dissolving 50 μg of steroid in 50 μl of 100% ETOH, then diluting the required amount in the 500 ml of water in the drinking bottle to reach the final effective dose. The highest final ETOH concentration in a waterbottle was 0.018% (90 μl dose) and was considered negligible.
Mice receiving fludrocortisone were administered a daily oral dose of 3 μg/kg per day or 10 μg/kg per day. Fludrocortisone drinking water was prepared by dissolving 50 μg of fludrocortisone, 50 μl of 100% ETOH, then diluting the required amount in the 500 ml of water in the drinking bottle to reach the final effective dose. The final ETOH concentration in a water bottle was considered negligible.
The shift in thresholds between baseline and posttreatment times was analyzed for each ear with a paired t-test. […] A probability value less than 0.05 was considered significant in all tests. […] In addition, by summing the shifts at each frequency, any random fluctuations in thresholds at the different frequencies due to equipment or animal variation are mathematically removed.

[13] = tested on: MRL/MpJ-Fas^lPr autoimmune mice
Experimental: (§5) The spironolactone treatment group was given daily oral doses (5 mg/kg per day) of spironolactone (Sigma, St. Louis, Mo.). Spironolactone drinking water was prepared by dissolving 15 mg of spironolactone in 0.6-0.8 ml of 100% ethyl alcohol (ETOH) and diluting it into a 500 ml drinking-water bottle. Mice drink 3-5 ml of water daily, so the effective dose was approximately 0.15 mg per day. The final ETOH concentration was approximately 0.1% and considered negligible. The dose of spironolactone administered (5 mg/kg per day) was equivalent to the dose used clinically for the treatment of primary hyperaldosteronism and was likely insufficient to completely block the mineralocorticoid receptor.
The spironolactone+aldosterone treatment group was given 15 μg/kg per day of aldosterone in addition to the 5 mg/kg/day of spironolactone. Aldosterone drinking water was prepared by dissolving 50 μg of aldosterone in 50 μl of 100% ETOH and diluting it in the same 500 ml drinking-water bottle as the spironolactone. The final effective dose of aldosterone was approximately 0.5 μg per day. The final ETOH concentration of aldosterone was less than 0.009%. […]
ABR thresholds were recorded before and during treatment (2, 3, and 4 months) to measure the effect of steroids on hearing decline as described above in Example 2.
Ears also were analyzed independently across all frequencies. […]

[14] = tested on: MRL/MpJ-Fas^lPr autoimmune mice; settings: spironolactone study
Experimental: as §5

[15] = Aldosterone 10 μg/kg/day, 2 months of treatment

In the case of `C[C@]12CCC(=O)C=C1CC[C@@H]1[C@@H]2[C@@H](O)C[C@]2(C=O)[C@@H](C(=O)CO)CC[C@@H]12` [Aldosterone, d-aldosterone], the average spleen weight [1] is reported as 399 mg, the “impact on continuing elevation of ANA levels” value [2] is reported as “did not have a significant impact” and the “tolerance of steroid in the drinking water” value (“tolerance of steroid” below) [3] is reported as “no adverse affects”. The stria vascularis appearance [4] was “restored the stria to almost normal appearance”, the stria appearance ([4]; aldosterone 15 and 30 μg treatment groups) was “virtually normal in appearance” and the stria epithelia appearance ([4]; lowest aldosterone dose) was “some edema and large vessels”. For the same compound, the “Alive at 2 months of Tx (mice)” value ([5]; Aldosterone 10 μg/kg/day) was 7, the “% alive” value ([5]; Aldosterone 10 μg/kg/day) was 87.5% and the change in hematocrit [6] was “did not cause any significant change”. For the same compound, the “posttreatment serum immune complex levels” value ([7]; higher dose aldosterone, four surviving mice) was 53,000 μg/ml, the “serum immune complex levels in individual mice” value ([7]; higher dose aldosterone, two of the four surviving mice) was 157,000 μg/ml and 45,000 μg/ml and the “effect on serum immune complexes” value [7] was “did not show any significant depression”. The “reversing or stabilizing autoimmune related hearing loss” value [8] was “just as effective as prednisolone”, the “stria blood vessel size relative to normal BALB/c median (35.3 μm^2)” value [9] was “the same size as normal mice” and the “# Better (ears)” value [10, 15] was 0. For the same compound, the “# Worse (ears)” value [10, 15] was 13, the “# no change (ears)” value [10, 15] was 1 and the “(%) Worse (ears)” value [10, 15] was “(93%)”. The “(%) no change (ears)” value [10, 15] was 7%, the “prevention of hearing loss / decrease of rate of hearing loss” value ([10]; prednisolone alone at 1 mg/kg/day, aldosterone alone at 3 μg/kg/day) was “not prevented” and the “overall ABR threshold changes vs pretreatment baselines” value ([11]; two month treatment period) was “prevent significant overall threshold changes”. For the same compound, the “% of ears that are same (unchanged)” value [11] was 27%, the “% of ears that are worse” value [11] was 69% and the “% of ears that are better” value [11] was 4%. For the same compound, the “thresholds / cochlear function relative to water controls” value ([11]; two months of treatment, Chi-squared) was “significantly better thresholds than controls”.

With `C[C@]12CCC(=O)C=C1CC[C@H]1[C@@H]3CC[C@](O)(C(=O)CO)[C@@]3(C)C[C@H](O)[C@@]12F` [Fludrocortisone] the “tolerance of steroid” value [12] was “similarly tolerate”, the “% of ears that are same (unchanged)” value [11] was 55% and 54.5% and the “% of ears that are worse” value [11] was 34%. The “% of ears that are better” value [11] was 12% and 11.5%.

In the case of `CC(=O)S[C@@H]1CC2=CC(=O)CC[C@]2(C)[C@H]2CC[C@@]3(C)[C@@H](CC[C@@]34CCC(=O)O4)[C@H]12` [Spironolactone], the “hearing patterns compared to water controls” value ([13]; four months of treatment) is reported as “no difference from controls”, the “hearing thresholds compared to water controls” value ([13]; three months of treatment) is reported as “no different from untreated mice” and the “systemic immune disease (immune complexes, hematocrits, body weights)” value [14] is reported as “normal progression of systemic disease”.

For prednisolone sodium phosphate, the average spleen weight [1] was 45 mg, the “impact on continuing elevation of ANA levels” value [2] was “did not have a significant impact” and the stria vascularis appearance [4] was “proper epithelium thickness, although dilated vessels still were seen”. For the same compound, the “Alive at 2 months of Tx (mice)” value ([5]; Prednisolone 3 mg/kg/day) was 3, the “% alive” value ([5]; Prednisolone 3 mg/kg/day) was 42.9% and the “systemic immune disease (immune complexes, hematocrits, body weights)” value [14] was “all of the normal immune suppression effects”. The hematocrits ([6]; higher dose prednisolone) was “elevated hematocrits beyond the normal range”, the average hematocrits ([6]; lower prednisolone dose) was “in the normal range” and the change in hematocrit [6] was “elevated hematocrits”. The “serum immune complex levels after treatment” value ([7]; higher prednisolone dose, dropped from 3,920 μg/ml) was “approximately 450 μg/ml”, the “effect on serum immune complexes” value [7] was “lowered serum immune complexes in a dose dependent manner” and the “serum immune complexes after treatment” value ([7]; prednisolone 5 mg dose, reduced from 4,570 μg/ml) was 1,092 μg/ml. For the same compound, the “tolerance of steroid” value [12] was “no adverse affects” and the survival ([12]; end of two months of treatment) was 60-65%.
